#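 96-well plates; 48 h exposure; 5 concentrations. Endpoints by linear interpolation between flanking doses. Not reached: highest tested concentration assigned. Here, GI50 denotes the concentration required for 50% inhibition of growth. TGI: concentration producing complete growth inhibition.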
# Tests used:
# Assay in all cases: DTP human tumour cell line panel, 48 h
# PC-3 prostate = tested on: PC-3 prostate
# NCI-H226 lung = tested on: NCI-H226 lung
# SF-295 CNS = tested on: SF-295 CNS
# IGROV1 ovarian = tested on: IGROV1 ovarian
# HT29 colon = tested on: HT29 colon
# OVCAR-8 ovarian = tested on: OVCAR-8 ovarian
# HCC-2998 colon = tested on: HCC-2998 colon
# HL-60(TB) leukemia = tested on: HL-60(TB) leukemia
# SN12C renal = tested on: SN12C renal
# OVCAR-3 ovarian = tested on: OVCAR-3 ovarian
SMILES,GI50 (PC-3 prostate),TGI (PC-3 prostate),GI50 (NCI-H226 lung),TGI (NCI-H226 lung),GI50 (SF-295 CNS),TGI (SF-295 CNS),GI50 (IGROV1 ovarian),TGI (IGROV1 ovarian),GI50 (HT29 colon),TGI (HT29 colon),GI50 (OVCAR-8 ovarian),TGI (OVCAR-8 ovarian),GI50 (HCC-2998 colon),TGI (HCC-2998 colon),GI50 (HL-60(TB) leukemia),TGI (HL-60(TB) leukemia),GI50 (SN12C renal),TGI (SN12C renal),GI50 (OVCAR-3 ovarian),TGI (OVCAR-3 ovarian)
CCN(c1cc(-c2ccc(CN3CCOCC3)cc2)cc(C(=O)NCc2c(C)cc(C)[nH]c2=O)c1C)C1CCOCC1,32 µM,> 100 µM,16.5 µM,40.8 µM,26.2 µM,71.3 µM,30.3 µM,> 63 µM,15.7 µM,35.6 µM,37.9 µM,> 100 µM,20.4 µM,49.7 µM,17.5 µM,56.2 µM,26.9 µM,> 64.5 µM,25 µM,> 54.6 µM
Cc1nc2ccc(NC(=O)CCNC(=O)CCCc3ccc(CC(C(=O)O)C(=O)O)cc3)cc2s1,> 100 µM,> 100 µM,> 100 µM,> 100 µM,> 100 µM,> 100 µM,> 100 µM,> 100 µM,> 100 µM,> 100 µM,> 100 µM,> 100 µM,> 100 µM,> 100 µM,> 100 µM,> 100 µM,> 100 µM,> 100 µM,> 100 µM,> 100 µM
Cn1cc(-c2ccc3nnc(Sc4ccc5ncccc5c4)n3n2)cn1,> 92.7 µM,> 100 µM,> 59.1 µM,> 100 µM,2.06 µM,> 100 µM,> 88.6 µM,> 100 µM,> 100 µM,> 100 µM,66.7 µM,> 100 µM,> 100 µM,> 100 µM,> 100 µM,> 100 µM,> 73.9 µM,> 100 µM,> 91.4 µM,> 100 µM
COC(=O)C1C(O)C(C)C(O)C(C)C=C(C)C2=C3C(=C(C)C(=O)c4c(O)c(c(C)c(OC(C)=O)c43)NC(=O)C(C)=C/C=C\C(C)C(O)C(C)C1O)OCO2 (centres undefined),,> 100 µM,,> 100 µM,,> 100 µM,,> 100 µM,,70.2 µM,,> 100 µM,,> 100 µM,,41.6 µM,,> 100 µM,,53 µM
c1ccc2c(-c3nc(-c4c[nH]c5ccncc45)cs3)c[nH]c2c1,1.84 µM,6.25 µM,3.24 µM,17.7 µM,1.58 µM,3.2 µM,1.33 µM,3.83 µM,2.07 µM,4.2 µM,1.97 µM,4.33 µM,1.87 µM,3.42 µM,2.02 µM,4.73 µM,1.67 µM,3.35 µM,1.98 µM,3.98 µM
COc1cc2c(cc1O)CC1c3c(cc(O)c(OC)c3-2)CCN1C (centres undefined),,> 100 µM,,> 100 µM,,> 100 µM,,> 100 µM,,> 100 µM,,> 100 µM,,> 100 µM,,> 100 µM,,> 100 µM,,> 100 µM
O=C(Nn1c(-c2ccccc2)nc2ccccc2c1=O)c1ccccc1O,,> 100 µM,,> 100 µM,,> 100 µM,,> 100 µM,,> 100 µM,,> 100 µM,,> 100 µM,,> 100 µM,,> 100 µM,,> 100 µM
O=c1cc(N/N=C/c2ccc(F)cc2)c2cc(Cl)ccc2[nH]1,8.41 µM,96.3 µM,14.6 µM,> 100 µM,21.9 µM,> 100 µM,18.5 µM,> 100 µM,23.1 µM,> 100 µM,19.8 µM,> 100 µM,32.4 µM,> 100 µM,18.8 µM,50.9 µM,23.8 µM,> 100 µM,24.8 µM,> 100 µM
COc1ncnc(S(=O)(=O)c2ccc(N=C3C(=O)N(CN4CCN(c5cc6c(cc5F)c(=O)c(C(=O)O)cn6C5CC5)CC4)c4ccc(Cl)cc43)cc2)c1OC,34.9 µM,> 50 µM,38.9 µM,> 50 µM,> 50 µM,> 50 µM,> 50 µM,> 50 µM,> 50 µM,> 50 µM,32.9 µM,> 50 µM,37.9 µM,> 50 µM,26.8 µM,> 50 µM,30.4 µM,> 50 µM,> 50 µM,> 50 µM
Cc1cc(O)c(C2=NN(c3ccc(S(N)(=O)=O)cc3)C(c3ccc(Cl)cc3)C2)c(C)c1Cl (centres undefined),4.44 µM,16.8 µM,10.5 µM,24.1 µM,16 µM,31.6 µM,6.19 µM,22.3 µM,3.3 µM,11 µM,5.75 µM,21.6 µM,6.48 µM,19.1 µM,7.84 µM,20.8 µM,5.71 µM,19.2 µM,4.21 µM,15.7 µM
COc1cc2c(cc1OCCCCCCN1CCN(CC(=O)Nc3ccc(Cl)cc3C(=O)c3ccccc3Cl)CC1)N=CC1CCCN1C2=O (centres undefined),0.308 µM,0.715 µM,0.575 µM,1.45 µM,0.18 µM,0.461 µM,0.195 µM,0.388 µM,0.229 µM,0.576 µM,0.201 µM,0.607 µM,0.173 µM,0.314 µM,0.244 µM,,0.298 µM,1.08 µM,0.189 µM,0.396 µM
